{"source": "patent US10781227B2", "about": "“Application of metal complexes in anti-tumor and anti-bacterial therapy” (biolitec Unternehmensbeteiligungs II AG, priority 2018, dated 2020)", "key": {"[1]": {"test_system": "HT29, L929, A431, A253, CAL-27 and J774A.1 cell lines", "assay": "Cell test of photodynamic activity and light independent toxicity, XTT cell viability assay", "type": "cell-based, human, mouse", "settings": "for activity against the cell lines under irradiation (phototoxicity): 2 or 10 μM photosensitizer, 24 h incubation, white light 50 J/cm^2, XTT after 24 h; for activity against the cell lines without light / toxicity against tumor cells in the absence of light: 2 or 10 μM; for activity against the cell lines without light: no irradiation (dark toxicity); for toxicity against tumor cells in the absence of light: no irradiation", "description": "The photosensitizing activity was determined in the following cell lines: • HT29 (human colon adenocarcinoma cell line) • L929 (mouse fibroblast cell line) • A431 (human epidermoid carcinoma cell line) • A253 (submaxillary salivary gland, epidermoid cell line) • CAL-27 (human tongue squamous cell carcinoma cell line) • J774A.1 (Mouse BALB/c monocyte macrophage). The cell lines were grown in DMEM (PAA Laboratories GmbH) supplemented with 10% heat-inactivated fetal calf serum (FCS, PAA Laboratories GmbH), 1% penicillin (10000 IU) and streptomycin (10000 μg/ml, PAA Laboratories GmbH). Cells were kept as a monolayer culture in a humidified incubator (5% CO2 in air at 37° C.). A photosensitizer stock solution (2 mM) was performed in DMSO and was kept in the dark at 4° C. […] Cells were incubated with fresh medium (DMEM without phenol red) containing 10% FCS with 2 or 10 μM of the photosensitizer for 24 h before light exposure. Before photosensitization, cells were washed, cell culture medium was exchanged with DMEM without phenol red and 10% FCS, then irradiated at room temperature with white light source at a fixed fluence rate of about 100 mW/cm^2 (50 J/cm^2). Following irradiation, cells were incubated in a humidified incubator (5% CO2 in air at 37° C.) for 24 h until cell viability assay. […] Solution was stored in the dark at −20° C. until use. A sterile solution containing PMS ([…], Applichem GmbH) was needed as an activation reagent for the XTT. 0.383 mg PMS was dissolved in 1 ml PBS-Buffer. The solution should be stored frozen and should not be exposed to light. The XTT reagent solution was thawed in a 37° C. water bath and the activation solution (PMS) was added immediately prior to use. To prepare a reaction solution sufficient for one micro plate (96 wells), 0.1 ml activation solution (PMS) was given to 5 ml XTT reagent. The medium in the micro plate was exchanged with RPMI without phenol red and 10% FCS (100 μl) prior adding 50 μl XTT reaction solution per well. The micro plate was incubated for 2-3 hours at 37° C. and 5% CO2 until an orange dye was formed. The micro plate has been shaken gently to evenly distribute the dye in the wells. The absorbance of the samples was measured with a spectrophotometer (Infinite 200, Tecan Group Ltd.) at a wavelength of 490 nm."}, "[2]": {"test_system": "Staphylococcus aureus DSM 11729", "assay": "Antibacterial testing, colony-forming units after incubation with or without white light", "type": "cell-based", "settings": "100, 10 or 1 μM; for activity against S. aureus under irradiation: 30 min incubation, white light about 100 J/cm^2, CFU/ml; for activity/toxicity against S. aureus without light: no illumination, CFU/ml", "description": "(§1) The organisms studied were Staphylococcus aureus DSM 11729, Gram-positive; Acinetobacter baumannii DSM30007, and Klebsiella pneumoniae DSM30104, both Gram-negative. Cultures cells are suspended in sterile phosphate-buffered saline (PBS) or sterile PBS supplemented with 10% sterile horse blood serum. The bacterial suspensions are placed into sterile black well plates with clear bottoms. Concentrations of photosensitizer used in the study were as follows: 100 μM, 10 μM and 1 μM. After an incubation time period of 30 minutes, the samples are exposed to white light, with a power density and irradiation time resulting in an energy fluency of about 100 J/cm^2. Control plates contained no photosensitizer and are not exposed to laser light. The control samples for dark toxicity are only exposed to photosensitizer without any illumination. After irradiation, the samples are removed and suspended again in the culture media. The numbers of colony-forming units (CFU/ml) are enumerated after an adequate incubation time period."}, "[3]": {"test_system": "Staphylococcus aureus DSM 11729; Acinetobacter baumannii DSM30007; Klebsiella pneumoniae DSM30104", "assay": "Antibacterial testing, bacteria not specified", "type": "cell-based", "settings": "PBS supplemented with 10% sterile horse blood serum", "description": "as §1"}, "[4]": {"test_system": "Klebsiella pneumoniae DSM30104", "assay": "Antibacterial testing, colony-forming units after incubation with or without white light", "type": "cell-based", "settings": "100, 10 or 1 μM", "description": "as §1"}}, "data": [{"substance": "Tris[5-(4-β-D-thiogalactosyl)-2,3,5,6-tetrafluorophenyl)dipyrrinato gallium(III) [Example 4.5]", "values": [{"measurement": "activity against the cell lines under irradiation (phototoxicity)", "setting": "[1]", "result": "high activity"}, {"measurement": "activity against the cell lines without light", "setting": "[1]", "result": "no activity"}, {"measurement": "activity against S. aureus under irradiation", "setting": "[2]", "result": "high activity"}, {"measurement": "activity/toxicity against S. aureus without light", "setting": "[2]", "result": "nearly no activity"}]}, {"substance": "Tris[5-(4-β-D-thioglucosyl)-2,3,5,6-tetrafluorophenyl)dipyrrinato gallium(III) [Example 4.3]", "values": [{"measurement": "antibacterial activity in the presence of complex media (serum addition)", "setting": "[3]", "result": "antibacterial activity is also observed"}, {"measurement": "activity against the cell lines under irradiation (phototoxicity)", "setting": "[1]", "result": "high activity"}, {"measurement": "activity against the cell lines without light", "setting": "[1]", "result": "no activity"}, {"measurement": "activity against S. aureus under irradiation", "setting": "[2]", "result": "high activity"}, {"measurement": "activity/toxicity against S. aureus without light", "setting": "[2]", "result": "nearly no activity"}, {"measurement": "activity against K. pneumoniae under irradiation", "setting": "[4]; 30 min incubation, white light about 100 J/cm^2, CFU/ml", "result": "high activity"}, {"measurement": "activity against K. pneumoniae without light", "setting": "[4]; no illumination, CFU/ml", "result": "nearly no activity"}]}, {"substance": "[bis(2,2′-bipyridyl(4-(hexyloxy)-2,3,5,6-tetrafluorophenyl)-dipyrrinato)]ruthenium(II) chloride [Example 4.6]", "values": [{"measurement": "toxicity against tumor cells in the absence of light", "setting": "[1]", "result": "high toxicity"}]}, {"substance": "[bis(2,2′-bipyridyl(4-(prop-2-enylamino)-2,3,5,6-tetrafluorophenyl)-dipyrrinato)]ruthenium(II) chloride [Example 4.7]", "values": [{"measurement": "antibacterial activity in the presence of complex media (serum addition)", "setting": "[3]", "result": "antibacterial activity is also observed"}, {"measurement": "toxicity against tumor cells in the absence of light", "setting": "[1]", "result": "high toxicity"}, {"measurement": "activity/toxicity against S. aureus without light", "setting": "[2]", "result": "high toxicity"}]}, {"substance": "[bis(2,2′-bipyridyl(4-(prop-2-enyloxy)-2,3,5,6-tetrafluorophenyl)-dipyrrinato)]ruthenium(II) chloride [Example 4.8]", "values": [{"measurement": "toxicity against tumor cells in the absence of light", "setting": "[1]", "result": "high toxicity"}, {"measurement": "activity/toxicity against S. aureus without light", "setting": "[2]", "result": "high toxicity"}]}]}
